The values below come from patent US10435402B2, “Bicyclic compounds, compositions and medicinal applications thereof” (Advinus Therapeutics Limited, priority 2015, dated 2019).

Bounds are passed on as bounds.

For the assay, the target named is T1, GAL4-DBD/RORγ-LBD (Homo sapiens, UniProt P51449).
T1 construct: expressed in transfected cells; host or cells: HEK293T
T1 sequence (P51449 269-508 limits assumed): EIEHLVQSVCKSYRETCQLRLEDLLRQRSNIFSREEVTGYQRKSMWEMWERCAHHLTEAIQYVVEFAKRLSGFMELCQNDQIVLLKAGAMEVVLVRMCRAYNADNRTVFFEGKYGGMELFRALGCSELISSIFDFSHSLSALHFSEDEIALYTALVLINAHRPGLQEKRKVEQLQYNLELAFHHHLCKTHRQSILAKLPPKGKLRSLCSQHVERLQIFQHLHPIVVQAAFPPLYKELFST
T1 sequence (P04386 1-147 partner limits assumed): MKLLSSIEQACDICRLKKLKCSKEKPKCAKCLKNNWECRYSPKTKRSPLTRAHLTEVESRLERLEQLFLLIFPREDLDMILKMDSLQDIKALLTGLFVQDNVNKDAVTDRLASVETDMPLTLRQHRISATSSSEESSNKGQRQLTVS
The assay can be described thus: RORγt transactivation reporter assay (GAL4-DBD/RORγ-LBD, luciferase read out). The assay is classed as cell-based. Conditions: HEK293T cells, GAL4-UAS luciferase reporter, overnight (18-24 hours) incubation. In outline:
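HEK293T cells were transiently co-transfected with GAL4-DBD/RORγt-LBD (SV40-Renilla transfection control) and a 9×GAL4-UAS firefly Luc2P reporter. Compounds (0.4% DMSO in the compound solution) were added 5 h post-transfection in FBS-free DMEM for 18–24 h at 37 °C. IC50 was taken from the normalised Dual-Glo luciferase signal.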
With `COC(=O)c1ccc(-c2cc(Oc3c(Cl)cccc3Cl)n3ccccc23)c(F)c1` [Example E-1, methyl 4-[3-(2,6-dichlorophenoxy)indolizin-1-yl]-3-fluoro-benzoate], the IC50 is less than 500 nM. With `O=C(O)c1ccc(-c2cc(Oc3c(Cl)cccc3Cl)n3ccccc23)c(F)c1` [Example E-2, 4-[3-(2,6-dichlorophenoxy)indolizin-1-yl]-3-fluoro-benzoic acid] the figure was less than 5000 nM; with `CNC(=O)c1ccc(-c2nc(C(=O)c3c(Cl)ccc(F)c3Cl)n3ccccc23)cc1` [Example F-1, 4-[3-(2,6-dichloro-3-fluoro-benzoyl)imidazo[1,5-a]pyridin-1-yl]-N-methyl-benzamide], more than 5000 nM; with `O=C(c1c(Cl)ccc(F)c1Cl)c1cc(-c2ccc(C(=O)N3CCOCC3)cc2)c2ccccn12` [Example F-3, [4-[3-(2,6-dichloro-3-fluoro-benzoyl)indolizin-1-yl]phenyl]-morpholino-methanone], more than 5000 nM. The value for `CCS(=O)(=O)N1CC=C(c2cc(C(=O)c3c(Cl)cccc3Cl)n3ccccc23)CC1` [Example G-1, (2,6-dichlorophenyl)-[1-(1-ethylsulfonyl-3,6-dihydro-2H-pyridin-4-yl)indolizin-3-yl]methanone] was more than 5000 nM.

`CCS(=O)(=O)N1CCC=C(c2cc(C(=O)c3c(Cl)ccc(F)c3Cl)n3ccccc23)C1` [Example G-2, (2,6-dichloro-3-fluoro-phenyl)-[1-(1-ethylsulfonyl-3,6-dihydro-2H-pyridin-5-yl)indolizin-3-yl]methanone]: the IC50 is more than 5000 nM. `O=C(O)c1ccc(-c2cc(C(=O)c3c(Cl)cccc3C(F)(F)F)n3c2CCCC3)cc1` [Example H-1, 4-[3-[2-chloro-6-(trifluoromethyl)benzoyl]-5,6,7,8-tetrahydroindolizin-1-yl]benzoic acid] returned an IC50 of less than 500 nM. In turn, `Cc1c(-c2ccc(C(=O)O)cc2F)c2n(c1C(=O)c1c(Cl)cccc1Cl)CCCC2` [Example H-2, 4-[3-(2,6-dichlorobenzoyl)-2-methyl-5,6,7,8-tetrahydroindolizin-1-yl]-3-fluoro-benzoic acid] displayed an IC50 of less than 500 nM. The value for `O=C(O)c1ccc(-c2cc(C(=O)c3c(Cl)cccc3C(F)(F)F)n3c2CCCC3)c(F)c1` [Example H-4, 4-[3-[2-chloro-6-(trifluoromethyl)benzoyl]-5,6,7,8-tetrahydroindolizin-1-yl]-3-fluoro-benzoic acid] was more than 5000 nM; that for `O=C(O)c1ccc(-c2nc(C(=O)c3c(Cl)ccc(F)c3Cl)n3ccccc23)cc1` [Example I-1, Sodium 4-[3-(2,6-dichloro-3-fluoro-benzoyl)imidazo[1,5-a]pyridin-1-yl]benzoate] was less than 500 nM; that for `O=C(O)c1ccc(-c2cc(Cc3c(F)cccc3Cl)n3ccccc23)cc1` [Example J-1, 4-[3-[(2-chloro-6-fluoro-phenyl)methyl]indolizin-1-yl]benzoic acid] was less than 500 nM. Regarding “(2,6-dichlorophenyl)-[1-(4-methylsulfonylphenyl)indolizin-3-yl]methanone [Example A-20]”, the IC50 was more than 5000 nM. The value for “ethyl 4-[3-(2-bromo-6-methyl-benzoyl)indolizin-1-yl]benzoate [Example A-66]” was less than 500 nM; that for “ethyl 4-[3-(2-chloro-6-fluoro-benzoyl)-8-fluoro-indolizin-1-yl]-3-fluoro-benzoate [Example A-33]” was less than 500 nM; that for “ethyl 4-[3-(2-chloro-6-fluoro-benzoyl)indolizin-1-yl]-3-fluoro-benzoate [Example A-25]” was less than 500 nM.
